Data reported in article PMC10384183, “Silver(I) and Copper(II) 1,10-Phenanthroline-5,6-dione Complexes as Promising Antivirulence Strategy against Leishmania: Focus on Gp63 (Leishmanolysin)” (Tropical Medicine and Infectious Disease, 2023).
Like-named read-outs stand apart in the source and are kept apart here. Where a SMILES comes first, the peptide text is derived from it. The star is where a group is joined. AMC = Cc1cc(=O)oc2cc(N*)ccc12; Cbz = O=C(OCc1ccccc1)*

Columns and labels:
secreted gp63 [1] = biological target: T1, secreted gp63 (Leishmania amazonensis, UniProt Q27673); assay: Detection of gp63 activity using fluorogenic substrate Z-Phe-Arg-AMC (kinetics, classical inhibitors); assay type: biochemical; parameters: endogenous in cells; host or cells: Leishmania amazonensis promastigotes; 0.22-µm filtered PBS-glucose-conditioned supernatant; conditions: for effect on hydrolysis of Z-Phe-Arg-AMC by gp63: 1 h, alkaline pH
T1 sequence (Q27673 100-597): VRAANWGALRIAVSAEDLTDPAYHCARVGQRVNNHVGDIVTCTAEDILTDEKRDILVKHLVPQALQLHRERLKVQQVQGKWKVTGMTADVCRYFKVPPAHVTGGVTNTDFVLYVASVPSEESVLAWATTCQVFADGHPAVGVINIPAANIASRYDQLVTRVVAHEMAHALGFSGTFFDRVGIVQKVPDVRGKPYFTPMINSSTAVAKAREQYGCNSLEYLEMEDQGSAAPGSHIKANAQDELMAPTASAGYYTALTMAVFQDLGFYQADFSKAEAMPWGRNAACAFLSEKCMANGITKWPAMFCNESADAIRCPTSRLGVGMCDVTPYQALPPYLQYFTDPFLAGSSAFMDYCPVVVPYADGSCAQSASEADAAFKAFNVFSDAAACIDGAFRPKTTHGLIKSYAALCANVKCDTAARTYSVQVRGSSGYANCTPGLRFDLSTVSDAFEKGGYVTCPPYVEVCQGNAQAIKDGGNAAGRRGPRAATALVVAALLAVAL
Method: The enzymatic activity of secreted gp63 was evaluated by the cleavage of the fluorogenic substrate Z-Phe-Arg-AMC. A 5 mM stock solution of the fluorogenic substrate was prepared in DMSO. The reaction was initiated by adding different substrate concentrations (2.5 µM, 5.0 µM, 10 µM and 20 µM) to gp63 (20 µg protein) in a total volume of 100 µL of 50 mM glycine-NaOH buffer, pH 10.0 [38]. At the same time, the titration of the amount of gp63 was also performed. In this sense, different concentrations of gp63 (ranging from 0.156 to 20 µg) were added to 10 µM Z-Phe-Arg-AMC substrate in a total volume of 100 µL of 50 mM glycine-NaOH buffer, pH 10.0. […] The reaction mixture was incubated at 37 °C for 1 h and the assays were controlled for self-release of the fluorophore in the same time interval. Proteolytic activity was expressed as fluorescence arbitrary units (FAU). Apparent Km and Vmax values were calculated using a computerized non-linear regression from the data obtained from the Michaelis–Menten equation (GraphPad Prism 8).

[2] = system: L. braziliensis gp63, membrane-associated form; parameters: method as in PMID 34363115; conditions: cited from earlier work
secreted gp63 [3] = biological target: T1, secreted gp63; assay: biochemical
Method: (§1) L. amazonensis promastigotes (10^9 cells) were resuspended in 2 mL of sterile isotonic PBS supplemented with 2% glucose and incubated for 3 h at both 26 °C (invertebrate host temperature) and 37 °C (mammalian host temperature). After this interval, parasite cells were removed by centrifugation and the supernatant (named PBS-glucose-conditioned supernatant) was passed over a 0.22-μm sterilizing membrane (Millipore, São Paulo, Brazil). The protein concentration was quantified by the method described by Lowry et al. [35], using bovine serum albumin (BSA) as standard.
(§2) To perform this, the reaction mixture containing 10 μg protein, 10 µM substrate and 50 mM glycine-NaOH buffer, pH 10.0, was incubated in the absence or presence of different concentrations of Ag-phendione (ranging from 40 to 0.625 μM) and Cu-phendione (ranging from 1000 to 15.62 μM). Fluorescence was measured using a SpectraMax Gemini XPS fluorescence microplate reader (Molecular Devices, Silicon Valley, CA, USA) at an excitation wavelength of 380 nm and an emission wavelength of 460 nm. […] The inhibitory constant (Ki) value was calculated using a derivation of the Michaelis–Menten equation employing GraphPad Prism 8.

LasB = biological target: LasB; parameters: method as in PMID 31428062; conditions: cited from earlier work
papain = system: papain; parameters: method as in PMID 8907521; conditions: cited from earlier work
L. braziliensis = system: L. braziliensis; parameters: method as in doi:10.1016/j.ejmcr.2022.100093; conditions: hamsters; cited from earlier work
[4] = system: cell-associated metallo-type peptidases (gp63); assay: gp63 proteolytic activity of cell extracts of treated promastigotes; assay type: cell-based, Leishmania amazonensis; conditions: promastigotes treated 24 h, IC50 and 2 × IC50; Z-Phe-Arg-AMC; versus untreated cells
Method: After that, promastigotes were washed and processed to evaluate both gp63 activity and gp63 protein levels.
For gp63 proteolytic activity, initially, whole parasite cellular extracts were obtained by repeated freeze/thawing cycles using 10^6 viable cells in PBS containing 1% CHAPS (3-[(3-cholamidopropyl) dimethylammonium]-1-propanesulfonate), pH 7.0. […] The gp63 proteolytic activity was determined as previously described using the cleavage of the fluorogenic substrate Z-Phe-Arg-AMC.

[5] = system: L. amazonensis promastigotes and THP-1 human macrophages; assay: Promastigotes-macrophage interaction (association index); assay type: cell-based, Leishmania amazonensis; parameters: key: % infected macrophages × amastigotes per macrophage
Method: The human leukemia monocytic cell line (THP-1) was maintained in 25-cm^2 tissue culture flasks with RPMI 1640 medium (Sigma-Aldrich, St. Louis, MO, USA) supplemented with 10% FBS at 37 °C in an atmosphere containing 5% CO2. To perform interaction experiments, THP-1 cells were seeded in 24-well plates at a density of 2 × 10^5 cells/well and then differentiated into macrophages by treatment with phorbol-12-myristate-13-acetate (PMA; 40 ng/mL) (Sigma-Aldrich) for 48 h. Then, the plates were washed twice with sterile PBS (pH 7.2) to remove PMA and a fresh RPMI 1640 medium was added. At the same time, L. amazonensis promastigotes were treated with the IC50 or 2 × IC50 values of the test compounds for 24 h. After this period, the parasites were allowed to infect the mammalian cells (10 parasites per macrophage) for 24 h at 37 °C and 5% CO2, in the absence or presence of 10 µg soluble gp63. Then, the cultures were washed with PBS to remove non-internalized parasites, fixed with methanol and stained with Giemsa. The percentage of infected macrophages was determined by randomly counting 200 cells on each of triplicate coverslips using a bright-field microscope. The association index was obtained by multiplying the percentage of infected macrophages by the number of amastigotes per macrophage.

[6] = system: L. braziliensis promastigotes and murine macrophages; parameters: method as in PMID 34363115; conditions: promastigotes pre-treated for 1 h; cited from earlier work
secreted gp63 [7] = biological target: T1, secreted gp63; assay: Gelatin-SDS-PAGE zymography of gp63 proteolysis; assay type: biochemical; parameters: endogenous in cells; host or cells: Leishmania amazonensis promastigotes; 0.22-µm filtered PBS-glucose-conditioned supernatant; conditions: 10 mM, pH 10.0, 48 h, 37 °C
Method: Proteolytic activity was assayed by SDS-PAGE containing 0.1% gelatin (Sigma-Aldrich, St. Louis, MO, USA) incorporated into the gel as the proteinaceous substrate. Briefly, 10 micrograms of proteins present in the PBS-glucose-conditioned supernatant were added to the SDS-PAGE sample buffer (125 mM Tris, pH 6.8, 4% SDS, 20% glycerol and 0.002% bromophenol blue) and subsequently subjected to electrophoresis, which was processed at 200 V/20 mA, for 2 h at 4 °C. Subsequently, SDS was removed by incubation of the gels with 2.5% Triton X-100 (Sigma-Aldrich, St. Louis, MO, USA) for 1 h at room temperature under constant agitation. The gels were incubated for 48 h at 37 °C in 50 mM glycine-NaOH buffer, pH 10.0, to promote proteolysis in the absence and in the presence of classical proteolytic inhibitors as follows: 10 mM phen, 10 mM phenylmethylsulphonyl fluoride (PMSF; Sigma-Aldrich, St. Louis, MO, USA) and 10 µM trans-epoxysuccinyl L-leucylamido-(4-guanidino) butane (E-64; Sigma-Aldrich, St. Louis, MO, USA). Finally, the gels were stained with 0.2% Coomassie Brilliant Blue R-250 (Sigma-Aldrich, St. Louis, MO, USA) in methanol–acetic acid–water (50:10:40) and destained in a solution containing methanol–acetic acid–water (5:10:85). The molecular masses of the peptidases were estimated by comparison with the mobility of molecular mass standards (Thermo Fisher Scientific, Waltham, MA, USA).

secreted gp63 [8] = biological target: T1, secreted gp63
Method: as §1, §2

[9] = system: L. amazonensis amastigotes; parameters: method as in PMID 36678418; conditions: amastigotes in THP-1 macrophages; cited from earlier work
[10] = system: L. amazonensis promastigotes; parameters: method as in PMID 36678418; conditions: 72 h of parasite-drug contact; cited from earlier work
[11] = promastigotes pre-treated 24 h with 2 × IC50 value, in the presence of 10 µg gp63-rich supernatant
[12] = promastigotes pre-treated 24 h with 2 × IC50 value, without gp63-rich supernatant
[13] = promastigotes pre-treated 24 h with IC50 value, in the presence of 10 µg gp63-rich supernatant
[14] = promastigotes pre-treated 24 h with IC50 value, without gp63-rich supernatant

Q: With `O=S(=O)(F)Cc1ccccc1` [PMSF, phenylmethylsulphonyl fluoride] as the molecule, how does the “effect on hydrolysis of Z-Phe-Arg-AMC by gp63” value (“effect on hydrolysis” below) (secreted gp63 [1]; inhibitor at 10 mM) read?
A: Its value is “did not significantly change the enzymatic activity”.

Q: For `O=C1C(=O)c2cccnc2-c2ncccc21` [Phendione, 1,10-Phenanthroline-5,6-dione], which “reduction of proteolytic activity” value ([2]; 1 μg/mL) is on record?
A: The value was 67%.

Q: What about the IC50 (secreted gp63 [3]) of the same molecule?
A: Its IC50 is 1490 µM.

Q: What about the Ki (secreted gp63 [3]) of the same molecule?
A: Its Ki is 745 µM.

Q: And the Ki (LasB)?
A: The Ki was 0.38 µM.

Q: With “oryzacystatin I1 [OCII, reference compound]” as the molecule, how does the “proteolytic activity of papain restored after electrophoresis” value (papain) read?
A: The value was roughly 100%.

Q: For `CC(C)C[C@H](NC(=O)[C@H]1O[C@@H]1C(=O)O)C(=O)NCCCCN=C(N)N` (relative stereo) [E-64, trans-epoxysuccinyl L-leucylamido-(4-guanidino) butane], which “effect on hydrolysis” value (secreted gp63 [1]; inhibitor at 10 µM) is on record?
A: The value was “did not significantly change the enzymatic activity”.

Q: With `O=C1C(=O)c2cccnc2-c2ncccc21.O=C1C(=O)c2cccnc2-c2ncccc21.[Ag+].[O-][Cl+3]([O-])([O-])[O-]` [Ag-phendione, [Ag(phendione)2]ClO4] as the molecule, how does the “reduction of proteolytic activity” value ([2]; 1 μg/mL) read?
A: Its value is 68%.

Q: And the “protective action (paw lesion, parasite number in paw and lymph nodes)” value (L. braziliensis)?
A: The value was “excellent protective action”.

Q: What about the “proteolytic capacity of cell-associated metallo-type peptidases reduced to” value [4] of the same molecule?
A: Its value is “approximately 55%”.

Q: What about the “association index (AI)” value [5, 11] of the same molecule?
A: Its value is 77.3.

Q: What about the “association index (AI)” value [5, 12] of the same molecule?
A: The value was 48.2.

Q: What about the “association index (AI)” value [5, 13] of the same molecule?
A: The value was 88.1.

Q: And the “association index (AI)” value [5, 14]?
A: The value was 60.6.

Q: What about the “reduction of the Leishmania-macrophage interaction” value [6] of the same molecule?
A: The value was “approximately 51.4%”.

Q: Which results are given for `Cc1cc(=O)oc2cc(NC(=O)C(CCCN=C(N)N)NC(=O)C(Cc3ccccc3)NC(=O)OCc3ccccc3)ccc12` (stereo not drawn) [Z-Phe-Arg-AMC] (Cbz-Phe-Arg-{AMC}; configuration not given here)?
A: Vmax (secreted gp63 [1]; cleavage of Z-Phe-Arg-AMC by released gp63, pH 10.0, 37 °C): 0.064 µM/s; Km (secreted gp63 [1]; cleavage of Z-Phe-Arg-AMC by released gp63, pH 10.0, 37 °C, read-out: apparent Km): 14.2 µM

Q: With `c1cnc2c(c1)ccc1cccnc12` [Phen, 1,10-phenanthroline] as the molecule, how does the “effect on hydrolysis” value (secreted gp63 [1]; inhibitor at 10 mM) read?
A: The value was “strong inhibition of the proteolytic activity”.

Q: And the “effect on proteolytic bands around 66 kDa” value (secreted gp63 [7])?
A: The value was “inhibited”.

Q: Which “reduction of proteolytic activity” value ([2]; 0.1 μg/mL) does the source give for `O.O.O.O.O=C1C(=O)c2cccnc2-c2ncccc21.O=C1C(=O)c2cccnc2-c2ncccc21.O=C1C(=O)c2cccnc2-c2ncccc21.[Cu+2].[O-][Cl+3]([O-])([O-])[O-].[O-][Cl+3]([O-])([O-])[O-]` [Cu-phendione, [Cu(phendione)3](ClO4)2.4H2O] here?
A: The value was 65%.

Q: And the “reduction of proteolytic activity” value ([2]; 1 μg/mL)?
A: Its value is 80%.

Q: And the “protective action (paw lesion, parasite number in paw and lymph nodes)” value (L. braziliensis)?
A: The value was “excellent protective action”.

Q: And the IC50 (secreted gp63 [8]; secreted gp63 10 µg, 10 µM Z-Phe-Arg-AMC, glycine-NaOH pH 10.0, 37 °C, 1 h)?
A: The IC50 was 163 µM.

Q: And the Ki (secreted gp63 [8]; secreted gp63, Z-Phe-Arg-AMC, glycine-NaOH pH 10.0)?
A: Its Ki is 27.1 µM.

Q: What about the IC50 [9] of the same molecule?
A: Its IC50 is 0.035 µM.

Q: What about the “proteolytic capacity of cell-associated metallo-type peptidases reduced to” value [4] of the same molecule?
A: Its value is “approximately 48%”.

Q: What about the IC50 [10] of the same molecule?
A: The IC50 was 0.0075 µM.

Q: What about the “association index (AI)” value [5, 11] of the same molecule?
A: The value was 64.6.

Q: And the “association index (AI)” value [5, 12]?
A: Its value is 54.8.

Q: And the “association index (AI)” value [5, 13]?
A: The value was 76.5.

Q: What about the “association index (AI)” value [5, 14] of the same molecule?
A: The value was 63.1.

Q: And the Ki (LasB)?
A: The Ki was 0.09 µM.

Q: And the “reduction of the Leishmania-macrophage interaction” value [6]?
A: Its value is 44.4%.

B1: oryzacystatin I (protein, UniProt P09229 27-140, looked up)
Cysteine proteinase inhibitor …: EAHRAGGEGEEKMSSDGGPVLGGVEPVGNENDLHLVDLARFAVTEHNKKANSLLEFEKLVSVKQQVVAGTLYYFTIEVKEGDAKKLYEAKVWEKPWMDFKELQEFKPVDASANA
Q: Which “inhibition of enzymatic activity of papain by the complex after electrophoresis” value (papain) does the source give for B1 here?
A: The value was “about 80%”.
